Reference: article PMC8048568, “Synthesis of σ Receptor Ligands with a Spirocyclic System Connected with a Tetrahydroisoquinoline Moiety via Different Linkers” (Chemmedchem, 2021)
Where two headings read alike, the source gives them in different places.

Tests used:
[1] = target: σ1 receptor (Cavia porcellus, UniProt Q60492); assay: σ1 receptor competitive radioligand binding assay with [3H]-(+)-pentazocine; details: for Ki: K i [nM]±SEM σ1, [3H]-(+)-pentazocine, guinea pig brain homogenate, mean of 3 experiments; for inhibition at 1 µM: read-out: inhibition of the radioligand, σ1
σ1 receptor (Cavia porcellus, UniProt Q60492), sequence (Q60492 whole entry): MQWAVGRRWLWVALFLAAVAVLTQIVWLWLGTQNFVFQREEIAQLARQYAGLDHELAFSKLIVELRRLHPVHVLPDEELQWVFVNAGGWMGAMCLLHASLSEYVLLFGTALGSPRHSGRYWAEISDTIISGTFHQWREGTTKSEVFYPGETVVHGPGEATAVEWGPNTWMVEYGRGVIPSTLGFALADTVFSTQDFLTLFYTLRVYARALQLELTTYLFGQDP

[2] = target: T1, σ2 receptor (Rattus norvegicus, UniProt Q5U3Y7); assay: σ2 receptor competitive radioligand binding assay with [3H]DTG, σ1 masked with (+)-pentazocine; details: for inhibition at 1 µM: read-out: inhibition of the radioligand, σ2, 1 μM of the test compound; for inhibition at 1 µM / inhibition of the radioligand, σ2: [3H]DTG, rat liver; for Ki: K i [nM]±SEM σ2, [3H]DTG, rat liver homogenate, mean of 3 experiments; for inhibition of the radioligand, σ2: 1 μM of the test compound, 1 µM
T1 sequence (Q5U3Y7 1-176): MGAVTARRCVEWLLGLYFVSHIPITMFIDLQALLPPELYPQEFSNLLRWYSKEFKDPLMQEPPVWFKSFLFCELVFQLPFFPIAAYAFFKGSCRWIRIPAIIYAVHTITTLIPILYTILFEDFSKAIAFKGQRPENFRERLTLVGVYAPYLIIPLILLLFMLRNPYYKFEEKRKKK

[3] = target: σ1 receptor; details: cited from earlier work

SMILES | Ki [1] [nM] | Ki [2] [nM] | also measured
COc1cc2c(cc1OC)CN(C(=O)CN1CCC3(CC1)OC(OC)Cc1ccccc13)CC2 (centres unmarked) [Compound 21, 1‐(6,7‐Dimethoxy‐3,4‐dihydroisoquinolin‐2(1H)‐yl)‐2‐{3‐methoxy‐3,4‐dihydrospiro[[2]benzopyran‐1,4′‐piperidin]‐1′‐yl}ethan‐1‐one] | 319 | – | inhibition at 1 µM [2]: 19%
COc1cc2c(cc1OC)CN(C(=O)CN1CCC3(CC1)OC(OC)c1ccccc13)CC2 (centres unmarked) [Compound 23, 1‐(6,7‐Dimethoxy‐3,4‐dihydroisoquinolin‐2(1H)‐yl)‐2‐{3‐methoxy‐3H‐spiro[[2]benzofuran‐1,4′‐piperidin]‐1′‐yl}ethan‐1‐one] | – | – | inhibition at 1 µM [1]: 0%; inhibition at 1 µM [2]: 0%
COc1cc2c(cc1OC)CN(CCN1CCC3(CC1)OC(OC)Cc1ccccc13)CC2 (centres unmarked) [Compound 30, 1′‐[2‐(6,7‐Dimethoxy‐3,4‐dihydroisoquinolin‐2(1H)‐yl)ethyl]‐3‐methoxy‐3,4‐dihydrospiro[[2]benzopyran‐1,4′‐piperidine]] | 608 | 348 | –
COc1cc2c(cc1OC)CN(C(=O)CNC1CCC3(CC1)OC(OC)c1ccccc13)CC2 (stereo not drawn) [cis‐24, cis‐1‐(6,7‐Dimethoxy‐3,4‐dihydroisoquinolin‐2(1H)‐yl)‐2‐[N‐(3‐methoxy‐3H‐spiro[[2]benzofuran‐1,1′‐cyclohexan]‐4′‐yl)amino]ethan‐1‐one] | 1600 | – | inhibition of the radioligand, σ2 [2]: 9%
COc1cc2c(cc1OC)CN(CC(=O)NC1CCC3(CC1)OC(OC)c1ccccc13)CC2 (stereo not drawn) [cis‐29, cis‐2‐(6,7‐Dimethoxy‐3,4‐dihydroisoquinolin‐2(1H)‐yl)‐N‐(3‐methoxy‐3H‐spiro[[2]benzofuran‐1,1′‐cyclohexan]‐4′‐yl)acetamide] | 129 | – | inhibition at 1 µM [2]: 0%
Fc1ccc(-n2cc(CCCCN3CCC4(CC3)OCc3ccccc34)c3ccccc32)cc1 [siramesine] | – | – | Ki ([3]; read-out: K i σ1 receptor): 17 nM
COc1cc2c(cc1OC)CN(C(=O)CNC1CCC3(CC1)OC(OC)c1ccccc13)CC2 (stereo not drawn) [trans‐24, trans‐1‐(6,7‐Dimethoxy‐3,4‐dihydroisoquinolin‐2(1H)‐yl)‐2‐[N‐(3‐methoxy‐3H‐spiro[[2]benzofuran‐1,1′‐cyclohexan]‐4′‐yl)amino]ethan‐1‐one] | – | – | inhibition at 1 µM [1]: 15%; inhibition of the radioligand, σ2 [2]: 0%
COc1cc2c(cc1OC)CN(CC(=O)NC1CCC3(CC1)OC(OC)Cc1ccccc13)CC2 (stereo not drawn) [trans‐26, trans‐2‐(6,7‐Dimethoxy‐3,4‐dihydroisoquinolin‐2(1H)‐yl)‐N‐(3‐methoxy‐3,4‐dihydrospiro[[2]benzopyran‐1,1′‐cyclohexan]‐4′‐yl)acetamide] | – | – | inhibition at 1 µM [1]: 7%; inhibition at 1 µM [2]: 4%
COc1cc2c(cc1OC)CN(CC(=O)NC1CCC3(CC1)OC(OC)c1ccccc13)CC2 (stereo not drawn) [trans‐29, trans‐2‐(6,7‐Dimethoxy‐3,4‐dihydroisoquinolin‐2(1H)‐yl)‐N‐(3‐methoxy‐3H‐spiro[[2]benzofuran‐1,1′‐cyclohexan]‐4′‐yl)acetamide] | 1300 | 1900 | –

More lines, main results first:

Ki [1] [nM] | Ki [2] [nM] | SMILES | also measured
518 | 534 | COc1cc2c(cc1OC)CN(CC(=O)N1CCC3(CC1)OC(OC)Cc1ccccc13)CC2 (centres unmarked) [Compound 25, 2‐(6,7‐Dimethoxy‐3,4‐dihydroisoquinolin‐2(1H)‐yl)‐1‐(3‐methoxy‐3,4‐dihydrospiro[[2]benzopyran‐1,4′‐piperidin]‐1′‐yl)ethan‐1‐one] | –
– | 3400 | COc1cc2c(cc1OC)CN(CC(=O)N1CCC3(CC1)OC(OC)c1ccccc13)CC2 (centres unmarked) [Compound 28, 2‐(6,7‐Dimethoxy‐3,4‐dihydroisoquinolin‐2(1H)‐yl)‐1‐{3‐methoxy‐3H‐spiro[[2]benzofuran‐1,4′‐piperidin]‐1′‐yl}ethan‐1‐one] | inhibition at 1 µM [1]: 19%
740 | – | COc1cc2c(cc1OC)CN(C(=O)CNC1CCC3(CC1)OC(OC)Cc1ccccc13)CC2 (stereo not drawn) [cis‐22, cis‐1‐(6,7‐Dimethoxy‐3,4‐dihydroisoquinolin‐2(1H)‐yl)‐2‐[N‐(3‐methoxy‐3,4‐dihydrospiro[[2]benzopyran‐1,1′‐cyclohexan]‐4′‐yl)amino]ethan‐1‐one] | inhibition at 1 µM [2]: 11%
1000 | 371 | COc1cc2c(cc1OC)CN(CC(=O)NC1CCC3(CC1)OC(OC)Cc1ccccc13)CC2 (stereo not drawn) [cis‐26, cis‐2‐(6,7‐Dimethoxy‐3,4‐dihydroisoquinolin‐2(1H)‐yl)‐N‐(3‐methoxy‐3,4‐dihydrospiro[[2]benzopyran‐1,1′‐cyclohexan]‐4′‐yl)acetamide] | –
712 | 2100 | COc1cc2c(cc1OC)CN(CCCC(=O)NC1CCC3(CC1)OC(OC)Cc1ccccc13)CC2 (stereo not drawn) [cis‐27, cis‐4‐(6,7‐Dimethoxy‐3,4‐dihydroisoquinolin‐2(1H)‐yl)‐N‐(3‐methoxy‐3,4‐dihydrospiro[[2]benzopyran‐1,1′‐cyclohexan]‐4′‐yl)butanamide] | –
251 | 200 | COc1cc2c(cc1OC)CN(CCNC1CCC3(CC1)OC(OC)Cc1ccccc13)CC2 (stereo not drawn) [cis‐31, cis‐N‐[2‐(6,7‐Dimethoxy‐3,4‐dihydroisoquinolin‐2(1H)‐yl)ethyl]‐3‐methoxy‐3,4‐dihydrospiro[[2]benzopyran‐1,1′‐cyclohexan]‐4′‐amine] | –
1400 | 499 | COc1cc2c(cc1OC)CN(CCNC1CCC3(CC1)OC(OC)Cc1ccccc13)CC2 (stereo not drawn) [trans‐31, trans‐N‐[2‐(6,7‐Dimethoxy‐3,4‐dihydroisoquinolin‐2(1H)‐yl)ethyl]‐3‐methoxy‐3,4‐dihydrospiro[[2]benzopyran‐1,1′‐cyclohexan]‐4′‐amine] | –
